IC50 data for 20 compounds are collected here from ChEMBL document CHEMBL3616476, “Expanding the structural diversity of Bcr-Abl inhibitors: Hybrid molecules based on GNF-2 and Imatinib” (Bioorg Med Chem Lett, 2015).

In test [1] the test system is K562. Briefly: cells. To be noted: Homo sapiens, K562, 48 h.
Test [2] deals with Bcr/Abl fusion protein (Homo sapiens, UniProt P00519). Briefly: Inhibition of Bcr-Abl (unknown origin) after 1 hr by luminescence assay. It counts as protein assay.
The target in test [3] is K562 (Homo sapiens). Kind of test: Antiproliferative activity against human K562 cells by MTT assay.

The structures appear in SMILES notation.

Bcr/Abl fusion protein, sequence (P00519 whole entry, the tested form may be a part): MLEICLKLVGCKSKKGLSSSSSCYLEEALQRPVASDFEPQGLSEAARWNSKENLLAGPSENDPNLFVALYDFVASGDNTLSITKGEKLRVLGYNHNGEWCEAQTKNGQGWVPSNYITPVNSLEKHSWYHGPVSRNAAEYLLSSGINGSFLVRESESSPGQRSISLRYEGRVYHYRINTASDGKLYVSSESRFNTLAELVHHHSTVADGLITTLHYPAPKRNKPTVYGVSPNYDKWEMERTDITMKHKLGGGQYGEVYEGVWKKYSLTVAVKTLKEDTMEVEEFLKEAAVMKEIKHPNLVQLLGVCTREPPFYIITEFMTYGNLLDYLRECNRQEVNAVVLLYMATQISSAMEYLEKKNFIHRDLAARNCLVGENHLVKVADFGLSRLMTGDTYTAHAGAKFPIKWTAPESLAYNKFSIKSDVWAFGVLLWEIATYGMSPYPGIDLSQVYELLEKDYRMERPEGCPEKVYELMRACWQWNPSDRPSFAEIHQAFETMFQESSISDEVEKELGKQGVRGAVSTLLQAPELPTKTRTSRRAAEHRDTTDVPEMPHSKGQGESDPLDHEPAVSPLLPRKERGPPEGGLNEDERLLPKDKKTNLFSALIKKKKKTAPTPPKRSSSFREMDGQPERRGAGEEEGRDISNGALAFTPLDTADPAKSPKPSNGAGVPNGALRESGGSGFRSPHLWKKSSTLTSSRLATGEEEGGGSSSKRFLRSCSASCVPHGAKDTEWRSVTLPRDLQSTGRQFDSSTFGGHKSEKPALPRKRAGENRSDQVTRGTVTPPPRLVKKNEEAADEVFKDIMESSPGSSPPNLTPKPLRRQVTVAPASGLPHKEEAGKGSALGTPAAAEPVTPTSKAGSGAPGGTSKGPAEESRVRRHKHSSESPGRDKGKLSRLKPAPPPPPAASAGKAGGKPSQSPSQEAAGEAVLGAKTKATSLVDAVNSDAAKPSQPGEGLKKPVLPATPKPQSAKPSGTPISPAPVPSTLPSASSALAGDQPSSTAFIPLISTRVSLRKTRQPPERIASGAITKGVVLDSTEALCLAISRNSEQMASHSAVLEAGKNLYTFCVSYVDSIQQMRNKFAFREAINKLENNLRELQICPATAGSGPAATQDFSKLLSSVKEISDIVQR
Bcr/Abl fusion protein, sequence (P11274 whole entry, further chain, the tested form may be a part): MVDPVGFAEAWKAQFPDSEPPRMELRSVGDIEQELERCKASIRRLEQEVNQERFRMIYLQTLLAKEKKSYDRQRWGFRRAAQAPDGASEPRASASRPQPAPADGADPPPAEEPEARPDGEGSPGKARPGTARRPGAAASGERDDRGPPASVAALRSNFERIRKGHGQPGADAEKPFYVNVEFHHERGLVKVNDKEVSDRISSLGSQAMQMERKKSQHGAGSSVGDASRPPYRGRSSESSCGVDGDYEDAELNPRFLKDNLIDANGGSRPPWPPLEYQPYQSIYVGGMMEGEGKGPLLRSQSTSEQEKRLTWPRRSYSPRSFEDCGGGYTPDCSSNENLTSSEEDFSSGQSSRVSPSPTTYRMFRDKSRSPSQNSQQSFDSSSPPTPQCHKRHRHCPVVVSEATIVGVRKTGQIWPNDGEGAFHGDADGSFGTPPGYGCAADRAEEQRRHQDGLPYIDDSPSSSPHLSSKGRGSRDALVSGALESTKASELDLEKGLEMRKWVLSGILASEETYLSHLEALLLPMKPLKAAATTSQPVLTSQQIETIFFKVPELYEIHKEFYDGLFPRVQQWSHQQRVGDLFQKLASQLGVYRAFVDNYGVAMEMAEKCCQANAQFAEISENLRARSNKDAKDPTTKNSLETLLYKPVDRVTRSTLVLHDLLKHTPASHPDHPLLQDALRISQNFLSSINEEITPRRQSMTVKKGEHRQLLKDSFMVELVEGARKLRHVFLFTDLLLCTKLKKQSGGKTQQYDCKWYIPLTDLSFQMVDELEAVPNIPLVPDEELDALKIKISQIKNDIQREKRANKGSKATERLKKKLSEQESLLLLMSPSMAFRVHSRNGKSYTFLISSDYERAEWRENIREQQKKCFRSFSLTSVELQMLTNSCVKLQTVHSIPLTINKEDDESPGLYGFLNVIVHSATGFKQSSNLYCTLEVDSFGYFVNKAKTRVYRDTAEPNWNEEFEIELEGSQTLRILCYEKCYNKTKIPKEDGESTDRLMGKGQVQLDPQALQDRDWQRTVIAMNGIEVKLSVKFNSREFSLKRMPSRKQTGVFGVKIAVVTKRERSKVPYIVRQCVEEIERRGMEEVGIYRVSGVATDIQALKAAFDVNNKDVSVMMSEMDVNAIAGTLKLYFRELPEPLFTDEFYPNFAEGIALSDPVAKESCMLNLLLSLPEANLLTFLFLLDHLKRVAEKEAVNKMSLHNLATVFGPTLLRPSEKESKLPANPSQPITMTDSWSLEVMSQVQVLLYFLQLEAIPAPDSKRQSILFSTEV

As for `COc1ccc(Nc2cc(-c3ccc(C(=O)NCCNC(=O)c4cccc(C(F)(F)F)c4)cc3)ncn2)cc1`, the IC50 amounted to 65.3 µM in test [1] and 2.59 µM in test [2].

Take `COc1ccc(Nc2cc(-c3ccc(C(=O)NCCNC(=O)c4cccc(OC)c4)cc3)ncn2)cc1`: the results for the IC50 in test [1] and in test [2] were 11.2 µM and 8.53 µM, respectively.

Regarding `COc1ccc(Nc2cc(-c3ccc(C(=O)NCCNC(=O)c4ccccc4C)cc3)ncn2)cc1`, the figures for the IC50 in test [1] and in test [2] were 38.5 µM and 14.5 µM, respectively.

In the case of `COc1ccc(Nc2cc(-c3ccc(C(=O)NCCNC(=O)c4ccc(C(C)(C)C)cc4)cc3)ncn2)cc1`, the IC50 was 0.83 µM in test [1] and over 100 µM in test [2].

Take `COc1ccc(Nc2cc(-c3ccc(C(=O)NCCNC(=O)c4cccc(N(C)C)c4)cc3)ncn2)cc1`: the half-maximal inhibitory concentration (IC50) in test [1] amounted to 0.85 µM; in test [2], 9.25 µM.

As for `COc1ccc(Nc2cc(-c3ccc(C(=O)NCCNC(=O)c4cccc(F)c4)cc3)ncn2)cc1`, the IC50 in test [1] came out at 33.9 µM; in test [2], 11.3 µM.

As to `COc1ccc(Nc2cc(-c3ccc(C(=O)NCCNC(=O)c4ccccc4Cl)cc3)ncn2)cc1`, the 50% inhibitory concentration (IC50) was determined as 0.64 µM in test [1] and 9.24 µM in test [2].

The compound `COc1ccc(Nc2cc(-c3ccc(C(=O)NCCNC(=O)c4ccc(F)cc4)cc3)ncn2)cc1` registered an IC50 in test [1] of 10.9 µM.

Regarding `COc1ccc(Nc2cc(-c3ccc(C(=O)NCCNC(=O)c4ccc(F)c(F)c4)cc3)ncn2)cc1`, the IC50 was determined as 6.2 µM in test [1] and 4.4 µM in test [2].

With `COc1ccc(Nc2cc(-c3ccc(C(=O)NCCNC(=O)c4c(F)cccc4Cl)cc3)ncn2)cc1`, the half-inhibitory concentration (IC50) in test [1] came out at 8.5 µM; in test [2], 6.2 µM.

For the compound `COc1ccc(Nc2cc(-c3ccc(C(=O)N4CCN(C(=O)c5ccccc5F)CC4)cc3)ncn2)cc1`, the IC50 in test [1] and in test [2] was 8.96 µM in each case.

In test [1], `COc1ccc(Nc2cc(-c3ccc(C(=O)N4CCN(C(=O)c5ccccc5Cl)CC4)cc3)ncn2)cc1` yielded a 50% inhibitory concentration (IC50) of 73.9 µM.

Take `COc1ccc(Nc2cc(-c3ccc(C(=O)N4CCN(C(=O)c5ccc(F)cc5)CC4)cc3)ncn2)cc1`: the IC50 in test [1] was 35.7 µM; in test [2], 0.017 µM.

In the case of `COc1ccc(Nc2cc(-c3ccc(C(=O)N4CCN(C(=O)c5ccc(OC)cc5)CC4)cc3)ncn2)cc1`, the IC50 in test [1] and in test [2] was over 100 µM in each case.

In test [1], `COc1ccc(Nc2cc(-c3ccc(C(=O)N4CCN(C(=O)c5cccc(F)c5)CC4)cc3)ncn2)cc1` returned an IC50 of 42.2 µM.

Consider `COc1ccc(Nc2cc(-c3ccc(C(=O)N4CCN(C(=O)c5ccc(Cl)cc5Cl)CC4)cc3)ncn2)cc1`, for which the IC50 in test [3] and in test [1] was 35 µM each time.

On to `COc1ccc(Nc2cc(-c3ccc(C(=O)N4CCN(C(=O)c5ccc(F)c(F)c5)CC4)cc3)ncn2)cc1`, for which the IC50 in test [3] and in test [1] was 15.3 µM each time.

For `COc1ccc(Nc2cc(-c3ccc(C(=O)N4CCN(C(=O)c5cccc(C(F)(F)F)c5)CC4)cc3)ncn2)cc1`, the IC50 in test [3] and in test [1] was 51.9 µM in each case.

On to `COc1ccc(Nc2cc(-c3ccc(C(=O)N4CCN(C(=O)c5cccc(C)c5)CC4)cc3)ncn2)cc1`, for which the IC50 in test [1] and in test [2] was over 100 µM in each case.

`COc1ccc(Nc2cc(-c3ccc(C(=O)N4CCN(C(=O)c5cccc(N(C)C)c5)CC4)cc3)ncn2)cc1`: the IC50 in test [3] and in test [1] was over 100 µM throughout.
